By inhibition is commonly meant the change of the read-out against control, counted positive when it falls. By IC50 is commonly meant the concentration at which inhibition is half-maximal. For orientation: CC50 means the concentration giving 50% cytotoxicity. In general, EC50 refers to the concentration giving half of the maximal effect. By viability is commonly meant a per cent measure of how many cells are alive, often set against a control.

Values joined by “and” are separate entries in the source; they are usually repeats but may differ in a detail not shown here. Equal entries are not always repeated.

For data set [1], the system named is T. cruzi amastigotes and trypomastigotes. The data set is described as follows: T. cruzi infection assay in L929 cells (beta-galactosidase Tulahuen strain). The format is cell-based, Trypanosoma cruzi.
The test system of data set [2] is L. amazonensis promastigotes. In words: Resazurin reduction assay, L. amazonensis promastigotes. It is filed as cell-based. As to conditions: Leishmania amazonensis, read-out: percentage of inhibition, L. amazonensis promastigotes. For orientation: The colour change of resazurin is a common sign of viable cells or microbes.
In data set [3] the test system is L. donovani axenic amastigotes. In words: Resazurin reduction assay, L. donovani axenic amastigotes. It is filed as cell-based. As to conditions: Leishmania donovani, read-out: percentage of inhibition, L. donovani axenic amastigotes.
Data set [4] concerns newly transformed schistosomula (NTS). The data set is described as follows: Phenotypic screening on newly transformed schistosomula (NTS). It is filed as cell-based, Schistosoma mansoni. Conditions: for IC50: Schistosoma mansoni, 72 h, read-out: IC50, viability of NTS.
Data set [5] relates to L. amazonensis amastigotes in primary mouse macrophages. As to conditions: 10 μM, 3 days, toxic = toxic for macrophages.
Another data set in a line: in vitro. Conditions: mouse, noninfected L929 fibroblast cells.
Data set [6] concerns L. donovani promastigotes. In words: Resazurin reduction assay, L. donovani promastigotes. The format is cell-based. Conditions: Leishmania donovani; 20 μM; read-out: percentage of inhibition, L. donovani promastigotes.
The test system of a further data set is S. mansoni adult worms. In words: Phenotypic screening on S. mansoni adult worms. The format is cell-based, Schistosoma mansoni. Conditions: 72 h.
Data set [7] can be described thus: MTT viability assay in RPE cells. The format is cell-based, human. As to conditions: human, retinal pigment epithelial (RPE) cells, read-out: percentage of RPE cell viability, 48 h. On the technique in general: Formazan colour is commonly taken as a measure of viable cells.
Data set [8] deals with human retinal pigment epithelial (RPE) cells. The data set is described as follows: MTT viability assay in RPE cells. The format is cell-based. As to conditions: Homo sapiens, RPE, 48 h, read-out: IC50 in RPE cells (cell viability).
Another data set concerns Leishmania. Also noted: method as in PMID 28107750. As to conditions: 10 and 20 μM; cited from earlier work.
The subject of data set [9] is S. mansoni schistosomula, adult worm pairs, and egg production. The arrangement: method as in PMID 28107750. As to conditions: 10 μM; cited from earlier work.
Where [10] appears, read: 40 μM, infected L929 cells, 96 h, toxic = L929 death.
Where [11] appears, read: 80 μM, infected L929 cells, 96 h, toxic = L929 death.
Where [12] appears, read: 160 μM, infected L929 cells, 96 h, toxic = L929 death.
Setting [13] is: Trypanosoma cruzi, infected L929 cells, 96 h, read-out: percentage of T. cruzi growth inhibition.
The mark [14] stands for this setting: Trypanosoma cruzi, infected L929 cells, 96 h, toxic = L929 death, read-out: percentage of T. cruzi growth inhibition.

Regarding `O=C(CCCCSc1nc(-c2ccc(-c3ccccc3)cc2)cc(=O)[nH]1)NO` [Compound 1], the “percentage of T. cruzi growth inhibition” value is given as “toxic” in [1] (setting [10]), “toxic” in data set [1] (setting [11]) and “toxic ^e” in data set [1] (setting [12]). Also, the inhibition at 1.25 µM in [1] (setting [13]) was 0%. For the same compound, the inhibition at 2.5 µM in data set [1] (setting [14]) was determined as 0%. Further, the inhibition at 5 µM in data set [1] (setting [14]) was found to be 0%. Moreover, in data set [1] (Trypanosoma cruzi, 10 μM, infected L929 cells, 96 h, toxic = L929 death, read-out: percentage of T. cruzi growth inhibition), the inhibition at 10 µM came to 0%. For the same compound, the inhibition at 20 µM in data set [1] (Trypanosoma cruzi, 20 μM, infected L929 cells, 96 h, toxic = L929 death, read-out: percentage of T. cruzi growth inhibition) was found to be 0%; in data set [2] it was 2.1 ± 3.2%; in [3], 29 ± 14%. The “EC50, growth of T. cruzi amastigotes and trypomastigotes” value in data set [1] (infected L929 cells, 96 h, mean ± SD) is “inactive”. The “percentage of NTS activity, 72 h” value in data set [4] (10 μM) came out at 29.3 ± 0.9%; in [4] (20 μM), 43.3 ± 1.9%. Also, the IC50 in [4] is over 20 µM. In data set [5], the “HCA outcome against intramacrophagic L. amazonensis amastigotes” value is “toxic”. In “in vitro”, this compound had a CC50 at 96 h of 20 µM.

Take `CC(C)(C)OC(=O)Nc1cccc(C(=O)/C=C/c2ccc(/C=C/C(=O)NO)cc2)c1` [Compound 4]: the “percentage of T. cruzi growth inhibition” value in [1] (10 μM, infected L929 cells, 96 h, toxic = L929 death) is listed as “toxic”; in data set [1] (20 μM, infected L929 cells, 96 h, toxic = L929 death) it was “toxic”; in [1] (setting [10]) it was “toxic”; in data set [1] (setting [11]), “toxic”; in data set [1] (setting [12]) it was “toxic”. Also, in data set [1] (L929 CC50 / T. cruzi EC50), the “selectivity index (SI), CC50/EC50” value is listed as 1.25. The EC50 in [1] (Trypanosoma cruzi, L929, 96 h, infected L929 cells, 96 h, mean ± SD, read-out: EC50, growth of T. cruzi amastigotes and trypomastigotes) was determined as 4 ± 0.07 µM. The inhibition at 1.25 µM in data set [1] (setting [13]) is 0%. Besides, in [1] (setting [14]), the inhibition at 2.5 µM was determined as 0%. In addition, the inhibition at 5 µM in [1] (setting [14]) is 85%. The inhibition at 0.8 µM stood at 10.5 ± 2.9% in [2] (0.8 μM) and 39.5 ± 2% in [3] (0.8 μM). The inhibition at 4 µM in data set [2] (4 μM) stood at 95.7 ± 0.3%; in data set [3] (4 μM) it was 61.4 ± 4.3%. Moreover, the inhibition at 20 µM in data set [2] amounted to 97.9 ± 0.4%; in data set [6], 95.9 ± 0.3%; in data set [3] it was 93.6 ± 0.4%. For the same compound, the “percentage of NTS activity, 72 h” value in [4] (1 μM) is 24% and 24.0 ± 0.0%; in data set [4] (10 μM), 100% and 100.0 ± 0.0%; in data set [4] (20 μM) it was 100% and 100.0 ± 0.0%. Further, the results for the half-maximal inhibitory concentration (IC50) in data set [4] and in data set [8] were 1.29 µM and 15.6 µM, respectively. Further, the “percentage of activity (death induction), S. mansoni adult worms” value in the data set on S. mansoni adult worms (10 μM) is 45.1 ± 3.9%; with S. mansoni adult worms (20 μM), 63.8 ± 0%. Further, the viability at 48 h, 1 µM in data set [7] (1 μM) came out at 75.7 ± 11.4%. Also, in [7] (5 μM), the viability at 48 h, 5 µM was 71.5 ± 12.8%. Besides, in data set [7] (10 μM), the viability at 48 h, 10 µM stood at 50.2 ± 8.4%. Moreover, the viability at 48 h, 25 µM in data set [7] (25 μM) was determined as 40.4 ± 9.8%. The viability at 48 h, 50 µM in [7] (50 μM) came out at 45.2 ± 6.6%. The “HCA outcome against intramacrophagic L. amazonensis amastigotes” value in data set [5] was “toxic”. In addition, in the data set “in vitro”, the CC50 at 96 h came to 5 µM.

Regarding `O=C(CCCCCCC(=O)Nc1ccccc1)NO` [SAHA], in the data set with Leishmania, the “effect in Leishmania” value is “ineffective and/or exhibited too high toxicity for macrophages”. In addition, the “effects in schistosomula, adult worm pairs, and egg production” value (from here on “effects in schistosomula”) in data set [9] is listed as “only moderate effects”.

As to `O=C(/C=C/c1cccc(S(=O)(=O)Nc2ccccc2)c1)NO` [belinostat], the “effect in Leishmania” value in the data set with Leishmania was “ineffective and/or exhibited too high toxicity for macrophages”. For the same compound, the “effects in schistosomula” value in data set [9] is given as “only moderate effects”.

In the case of `Cc1[nH]c2ccccc2c1CCNCc1ccc(/C=C/C(=O)NO)cc1` [panobinostat], the “effect in Leishmania” value with Leishmania is on record as “ineffective and/or exhibited too high toxicity for macrophages”. For the same compound, the “effects in schistosomula” value in data set [9] is on record as “only moderate effects”.

Turning to `C/C=C1\NC(=O)[C@H]2CSSCC/C=C/[C@H](CC(=O)N[C@H](C(C)C)C(=O)N2)OC(=O)[C@H](C(C)C)NC1=O` [romidepsin], the “effect in Leishmania” value in the data set on Leishmania is given as “ineffective and/or exhibited too high toxicity for macrophages”. Further, in [9], the “effects in schistosomula” value was “only moderate effects”.

(Values after paper PMC9274761, “Effects of Structurally Different HDAC Inhibitors against Trypanosoma cruzi, Leishmania, and Schistosoma mansoni” (ACS Infectious Diseases, 2022).)
